For this experiment, the target named is T1, Organic anion transporter 3 (Homo sapiens, UniProt Q8TCC7).
T1 sequence (Q8TCC7 whole entry): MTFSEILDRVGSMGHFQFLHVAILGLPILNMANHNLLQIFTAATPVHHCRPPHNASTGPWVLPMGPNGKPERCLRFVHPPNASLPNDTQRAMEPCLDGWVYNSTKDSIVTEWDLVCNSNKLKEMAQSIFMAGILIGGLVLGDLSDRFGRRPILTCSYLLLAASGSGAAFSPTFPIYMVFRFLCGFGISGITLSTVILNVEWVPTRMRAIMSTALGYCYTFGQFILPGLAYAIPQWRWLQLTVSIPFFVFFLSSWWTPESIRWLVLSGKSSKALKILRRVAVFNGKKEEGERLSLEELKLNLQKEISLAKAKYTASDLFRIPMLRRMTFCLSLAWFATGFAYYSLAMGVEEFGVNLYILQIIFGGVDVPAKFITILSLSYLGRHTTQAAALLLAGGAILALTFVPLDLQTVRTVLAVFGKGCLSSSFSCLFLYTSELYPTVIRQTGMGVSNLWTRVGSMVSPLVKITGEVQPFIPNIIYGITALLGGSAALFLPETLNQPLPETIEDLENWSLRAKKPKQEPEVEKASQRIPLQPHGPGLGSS
The experiment in a line: TP_TRANSPORTER: inhibition of E1S uptake in OAT3-expressing S2 cells. In kind it is functional, cell-based.
`CC1(C)C[C@@H]1C(=O)N/C(=C\CCCCSC[C@H](N)C(=O)O)C(=O)O` [CILASTATIN] yielded an inhibition constant (Ki) of 231 µM.
For `O=C(O)CCNC(=O)c1ccccc1` [BETAMIPRON] the value was 48.3 µM; for `CCCn1c(=O)c2[nH]c(C34CC5CC(CC3C5)C4)nc2n(CCC)c1=O` [ROLOFYLLINE], 3.7 µM.

By Ki is commonly meant the equilibrium dissociation constant of an inhibitor or competing ligand from its target. A high value points to weaker binding.

The values above are taken from ChEMBL document CHEMBL2074338, “Characterization of organic anion transport inhibitors using cells stably expressing human organic anion transporters” (Eur J Pharmacol, 2001).
